Data reported in US20220233542A1, “COMPOSITIONS AND METHODS FOR PREVENTING OR TREATING HUMAN IMMUNODEFICIENCY VIRUS ASSOCIATED PULMONARY ARTERIAL HYPERTENSION” (University of Georgia Research Foundation, priority 2019, published 2022).
Values joined by “and” are separate entries in the source; they are usually repeats but may differ in a detail not shown here. Equal values may be shown once. “Also recorded” adds a separate entry of the source.

Key:
[1] = system: right ventricle collagen deposition; assay: Right ventricular collagen deposition (Masson's trichrome); type: in vivo, Macaca mulatta
From the text: Moreover, increases in collagen deposition within the right ventricle (FIG. 15B, P=0.004; FIG. 15C) and small pulmonary arteries (FIG. 15D, P=0.0005) correlated with increased pulmonary pressures in SIV/Uninfected controls. Given the substantial dampening of pro-fibrotic immune phenotypes that occurs with statin treatment, right ventricular and lung periarteriolar collagen deposition were examined following statin treatment.
(§1) Animals. […] Study Design and Statin treatment. […] Hemodynamic measurements through right hearth catheterization. […] Flow Cytometry. […] Cytokine measurement in plasma and BALF. […] Whole slide images were acquired by Servicebio (Woburn, Mass.). […]

SIVΔB670 = assay: Plasma viral load throughout SIV infection; type: in vivo, simian immunodeficiency virus (SIV)
From the text: Therefore, peripheral blood CD4^+ T cell levels and plasma viral load throughout SIV infection were examined.
Animals. 28 adult Chinese rhesus macaques (Macaca mulatta) aged 6-10 years old were obtained from national primate centers or vendors and housed in accordance with the NIH Guide for the Care and Use of Laboratory Animals in a BSL2^+ primate facility at the University of Georgia (National Research Council Committee for the Update of the Guide for the Care and Use of Laboratory Animals, Guide for the Care and Use of Laboratory Animals (8th ed.) (National Academies Press National Academy of Sciences., 2011). Prior to admission to the study, all animals were screened and found negative for simian retroviruses and preexisting cardiovascular disease. Study Design and Statin treatment. All cohorts were infected with SIVΔB670 (1:100 in PBS), tissue culture infectious dose of 50% (TCID50)=2.6×10^5), intravenously or mucosally as previously described (Tarantelli et al. (2018); Schweitzer, F. et al. (2019)). […] All procedures were approved by the University of Georgia Institutional Animal Care and Use Committee. Hemodynamic measurements through right hearth catheterization. Right heart catheterization was performed and analyzed using a Swan-Ganz balloon wedge pressure catheter advanced through the right atrium, right ventricle, and pulmonary artery as previously described (Tarantelli et al). Flow Cytometry. Peripheral blood and bronchoalveolar lavage fluid (BALF) were collected at baseline (BL), 6 months post infection (mpi) and at study termination (10-12 mpi), and processed for flow cytometry as previously described (Board, K. F. et al. Experimental Pneumocystis carinii pneumonia in simian immunodeficiency virus-infected rhesus macaques. The Journal of infectious diseases 187, 576-588 (2003) and Kling, H. M. et al. Relationship of Pneumocystis jiroveci humoral immunity to prevention of colonization and chronic obstructive pulmonary disease in a primate model of HIV infection. Infection and immunity 78, 4320-4330 (2010)). CD14^dimCD16^+ non-classical monocytes and CCR7^−CD163^−CD206^+ BALF macrophages were identified by flow cytometry and calculated as previously described by Schweitzer, F. et al., supra). All analyses were performed using FlowJo Analysis software (Tree Star, Inc., Ashland, Oreg.). Cytokine measurement in plasma and BALF. Quantitative analysis of cytokines and chemokines in the plasma and BALF was performed using the Cytokine 29-Plex Monkey Panel (Invitrogen, Carlsbad, Calif.) according to the manufacturer's instructions. BALF analytes were normalized on the assumption that plasma and BALF have equal urea concentrations as previously described, using Quanti Chrom Urea Assay Kit (BioAssay Systems, Destin, Fla.) (Schweitzer, F. et al., supra). Histopathology and quantification of right ventricular and lung periarteriolar collagen deposition. 5 μm thick FFPE sections of the right heart and lung were cut and stained with Masson's trichrome and 0.1% Pico Sirius Red counterstained with Weigert's hematoxylin, to reveal fibrillar collagen, respectively by the UGA CVM Histopoathology Laboratory (Athens, Ga.). […] To quantify right ventricular collagen deposition in Masson's trichrome stained sections, 170 mm^2 regions were analyzed using Image J software (imagej.nih.gov/ij), with the threshold color plugin set to RGB; bright blue collagen was selected, converted to a binary image, and measured to quantify the collagen area. […]

TGF-β = assay: Cytokine measurement in BALF (Cytokine 29-Plex Monkey Panel); type: in vivo, Macaca mulatta; conditions: both statin-treated cohorts compared to PAH+ and PAH− SIV/Untreated controls
From the text: To determine if statin treatment could modify these inflammatory mediators associated with SIV-PAH, cytokine profiles in the statin-treated cohorts were compared.
Animals. 28 adult Chinese rhesus macaques (Macaca mulatta) aged 6-10 years old were obtained from national primate centers or vendors and housed in accordance with the NIH Guide for the Care and Use of Laboratory Animals in a BSL2^+ primate facility at the University of Georgia (National Research Council Committee for the Update of the Guide for the Care and Use of Laboratory Animals, Guide for the Care and Use of Laboratory Animals (8th ed.) (National Academies Press National Academy of Sciences., 2011). Prior to admission to the study, all animals were screened and found negative for simian retroviruses and preexisting cardiovascular disease. Study Design and Statin treatment. All cohorts were infected with SIVΔB670 (1:100 in PBS), tissue culture infectious dose of 50% (TCID50)=2.6×10^5), intravenously or mucosally as previously described (Tarantelli et al. (2018); Schweitzer, F. et al. (2019)). […] All procedures were approved by the University of Georgia Institutional Animal Care and Use Committee. […] Quantitative analysis of cytokines and chemokines in the plasma and BALF was performed using the Cytokine 29-Plex Monkey Panel (Invitrogen, Carlsbad, Calif.) according to the manufacturer's instructions. […]

[2] = system: SIV-infected rhesus macaques; assay: SIV-PAH model, hemodynamics by serial right heart catheterization; type: in vivo, Macaca mulatta; conditions: for Incidence PAH ≥ 25 mm Hg 6-12 mpi: number of animals of n = 14; for Prevalence of PAH (% PAH+): n = 14, untreated 52.2
Procedure: To determine the effect of statin treatment on PAH, SIV-infected rhesus macaques were studied. More specifically, a non-human primate (NHP) model of HIV-associated PAH that closely mimics HIV-PAH using simian immunodeficiency virus (SIV)-infected rhesus macaques (Macaca mulatta) was used. […] Moreover, the histologic and hemodynamic manifestations of SIV-PAH closely approximate those of human PAH.
Hemodynamics were measured by serial right heart catheterizations at baseline (BL), 6 months post-infection (6 mpi), and at the end of study (10-12 mpi) (FIG. 11C, 11D). In contrast to untreated controls (Untreated/SIV Group 1), 14.3% (Table 5, 2 of 14, P=0.03) of statin-treated animals (SIV/Statin Group 2) developed elevated mean pulmonary arterial pressure (mPAP) (monkey 3316 at 25.4 mm Hg and monkey 2416 at 46.3 mm Hg) at 6 mpi (FIG. 1). Of these animals, one maintained slightly elevated mPAP until the end of the study (monkey 3316, terminal mPAP=25.7). At study termination, mPAP of monkey 2416 decreased to 21.2 mm Hg.
It was further tested whether statin treatment initiated following SIV infection could modify PAH incidence or progression (FIG. 11A, SIV/Statin Group 3; Table 6). In this cohort, 1 of 14 monkeys (Table 2, 7.1%, P=0.0097) developed PAH (animal 2916; 6 mpi mPAP=45.5) at 6 mpi.
as §1

[3] = system: CD14dimCD16+ non-classical monocytes; assay: Flow cytometry of peripheral blood monocytes; type: in vivo, Macaca mulatta; conditions: both statin cohorts at 6 mpi compared to SIV-PAH+ controls
From the text: (§2) Among cytokine signatures associated with the SIV-PAH, MIP-1α, TNF-α, and TGF-β have been previously associated with macrophage populations that promote fibrosis. At 6 mpi, SIV-PAH^+ animals had higher numbers of peripheral blood CD14^dimCD16^+ non-classical monocytes (FIG. 14A, p=0.06) and CCR7^−CD163^−CD206^+ BALF macrophages (FIG. 14C, p=0.04) compared to SIV-PAH^− controls. Moreover, increased numbers of CD14^dimCD16^+ non-classical monocytes (FIG. 14B, left panel, p=0.04) and CD14^+ CCR7^−CD163^−CD206^+ macrophages (FIG. 14D, left panel, p=0.03) correlate with increased pulmonary pressures in SIV/Uninfected controls at 6 mpi. Given the pleiotropic effects of statin upon monocyte and macrophage skewing and cytokine secretion, it was hypothesized that statins may decrease these populations which are associated with SIV-PAH.
as §1

[4] = system: small pulmonary arteries collagen deposition; assay: Lung periarteriolar collagen deposition (Picro-Sirius Red); type: in vivo, Macaca mulatta
[5] = system: CCR7−CD163−CD206+ BALF macrophages; assay: Flow cytometry of BALF macrophages; type: in vivo, Macaca mulatta; conditions: Groups 2 and 3 at 6 mpi compared to both PAH+ and PAH− SIV/Untreated controls
From the text: as §2, §1

[6] = statin-treated cohorts compared with SIV-PAH− controls
[7] = SIV/Statin Group 2, individual animals
[8] = SIV/Statin Group 3, individual animals

## CC(C)c1c(C(=O)Nc2ccccc2)c(-c2ccccc2)c(-c2ccc(F)cc2)n1CC[C@@H](O)C[C@@H](O)CC(=O)O [atorvastatin]
[1]; both statin-treated cohorts compared to SIV-PAH+
  right ventricle collagen deposition: significantly less collagen deposition
[1]; [6]
  right ventricle collagen deposition: considerably less collagen deposition
SIVΔB670; [7]
  Peak viral load (no. of RNA copies/mL): 8.1 × 10^6 RNA copies/mL and 7.9 × 10^6 RNA copies/mL and 1.6 × 10^7 RNA copies/mL and 1.3 × 10^7 RNA copies/mL and 7.3 × 10^6 RNA copies/mL and 1.7 × 10^7 RNA copies/mL and 1.8 × 10^7 RNA copies/mL and 4.9 × 10^7 RNA copies/mL and 1.1 × 10^7 RNA copies/mL and 9.3 × 10^6 RNA copies/mL and 3.7 × 10^7 RNA copies/mL and 5.0 × 10^7 RNA copies/mL and 1.0 × 10^7 RNA copies/mL and 5.0 × 10^6 RNA copies/mL
  Viral set point (no. of RNA copies/mL): 3.0 × 10^4 RNA copies/mL and 6.1 × 10^3 RNA copies/mL and 1.8 × 10^6 RNA copies/mL and 1.7 × 10^6 RNA copies/mL (2×) and 9.9 × 10^5 RNA copies/mL and 2.7 × 10^5 RNA copies/mL and 1.3 × 10^4 RNA copies/mL and 8.8 × 10^4 RNA copies/mL and 3.5 × 10^5 RNA copies/mL and 4.6 × 10^4 RNA copies/mL and 2.9 × 10^6 RNA copies/mL and 1.4 × 10^5 RNA copies/mL and 1.2 × 10^5 RNA copies/mL
SIVΔB670; SIV/Statin Group 3 (treatment started 4 months following infection), individual animals
  Peak viral load (no. of RNA copies/mL): 2.4 × 10^7 RNA copies/mL and 1.6 × 10^7 RNA copies/mL and 1.2 × 10^7 RNA copies/mL and 4.7 × 10^7 RNA copies/mL and 4.3 × 10^7 RNA copies/mL and 2.2 × 10^7 RNA copies/mL and 1.0 × 10^6 RNA copies/mL and 8.4 × 10^5 RNA copies/mL and 8.3 × 10^6 RNA copies/mL and 7.3 × 10^6 RNA copies/mL and 9.6 × 10^6 RNA copies/mL and 8.8 × 10^6 RNA copies/mL and 2.9 × 10^7 RNA copies/mL and 5.8 × 10^6 RNA copies/mL
SIVΔB670; [8]
  Viral set point (no. of RNA copies/mL): 1.4 × 10^5 RNA copies/mL and 4.1 × 10^3 RNA copies/mL and 1.1 × 10^6 RNA copies/mL and 7.8 × 10^2 RNA copies/mL and 1.4 × 10^6 RNA copies/mL and 1.2 × 10^7 RNA copies/mL and 1.5 × 10^4 RNA copies/mL and 3.0 × 10^2 RNA copies/mL and 1.1 × 10^5 RNA copies/mL and 1.8 × 10^6 RNA copies/mL and 4.4 × 10^5 RNA copies/mL and 2.8 × 10^3 RNA copies/mL and 4.0 × 10^5 RNA copies/mL and 9.0 × 10^3 RNA copies/mL
SIVΔB670; both statin-treated cohorts, throughout SIV infection
  viral load compared to SIV/Untreated controls: did not significantly alter; also recorded: does not significantly affect
TGF-β
  levels of BALF TGF-β at 6 mpi: significantly lower
[2]; [7]
  PAH Status: PAH− (PAH is defined as mPAP≥25 mm Hg); also recorded: PAH+ (PAH is defined as mPAP≥25 mm Hg)
  Peak mPAP (mm Hg): 15.2 mm Hg and 46.3 mm Hg and 23.2 mm Hg (2×) and 25.7 mm Hg and 19.2 mm Hg and 17.6 mm Hg and 20.2 mm Hg and 17.4 mm Hg and 16.6 mm Hg and 17.1 mm Hg and 22.0 mm Hg and 20.6 mm Hg and 20.7 mm Hg
[2]; SIV/Statin Group 2: atorvastatin 10 mg/day orally from 1 week prior to SIV infection
  Incidence PAH ≥ 25 mm Hg 6-12 mpi: 2
[2]; SIV/Statin Group 2: atorvastatin from 1 week prior to SIV infection
  Prevalence of PAH (% PAH+): 14.3%
[2]; SIV/Statin Group 2: atorvastatin from 1 week prior to SIV infection, listed as Statin
  Prevalence of PAH (% PAH+): 14.3%
[2]; SIV/Statin Group 2, monkey 3316 and monkey 2416
  mPAP at 6 mpi of animals that developed elevated mPAP: 25.4 mm Hg and 46.3 mm Hg
[2]; SIV/Statin Group 2, monkey 3316 and monkey 2416, study termination
  terminal mPAP of animals that developed elevated mPAP: 25.7 mm Hg and 21.2 mm Hg
[2]; [8]
  PAH Status: PAH− (PAH is defined as mPAP≥25 mm Hg); also recorded: PAH+ (PAH is defined as mPAP≥25 mm Hg)
  Peak mPAP (mm Hg): 21.4 mm Hg and 16.8 mm Hg and 13.2 mm Hg and 23.6 mm Hg and 45.5 mm Hg and 22.9 mm Hg and 24.1 mm Hg and 18.9 mm Hg and 20.2 mm Hg and 19.8 mm Hg and 24.4 mm Hg and 19.9 mm Hg
[2]; SIV/Statin Group 3: atorvastatin 10 mg/day orally from 4 months following SIV infection
  Incidence PAH ≥ 25 mm Hg 6-12 mpi: 1
[2]; SIV/Statin Group 3: atorvastatin from 4 months following SIV infection
  Prevalence of PAH (% PAH+): 7.1%
[2]; SIV/Statin Group 3: atorvastatin from 4 months following SIV infection, listed as Statin
  Prevalence of PAH (% PAH+): 7.1%
[2]; SIV/Statin Group 3, animal 2916
  6 mpi mPAP of the animal that developed PAH: 45.5
[2]; treatment initiated during the early chronic disease stage
  incidence of PAH: reduced incidence of PAH compared to untreated animals
[2]; treatment of healthy macaques prior to and throughout SIV infection
  development of SIV-associated PAH: prevented the development of SIV-associated PAH
[3]
  number of CD14dimCD16+ non-classical monocytes: significantly lower
[4]; statin-treated cohorts compared to SIV-PAH+
  small pulmonary arteries collagen deposition: significantly less collagen deposition
[4]; [6]
  lung collagen deposition: considerably less collagen deposition
[5]
  number of CCR7−CD163−CD206+ BALF macrophages: significantly reduced
